Results as given in US9517244B2, “Therapeutic combinations for use in neoplasia” (University of Florida Research Foundation, Inc., priority 2011, dated 2016).

Experiments:
[1] = tested on: CD133, Nanog, Oct4, Sox2 expression in colon cancer stem cells; assay: qRT-PCR of self-renewal marker genes in colon cancer stem cells; format: cell-based, human; conditions: 1.25 μM NSC-30049 + 1.25 μM OPT, 72 h, compared to either alone
Protocol: Cells were treated with 1.25 μM of NSC-30049 and 1.25 μM of OPT either alone or in combination for 72 h. Data are mean±SD of triplicate experiments. FIG. 9B depicts the inhibition in expression of self-renewal marker genes of colon cancer stem cells, qRT-PCR data of CD133+, Oct4, Sox2 and Nanog gene expression levels of parental cancer cells and colon cancer stem cells was obtained. Cells were treated with 1.25 μM of NSC-30049 and 1.25 μM of OPT either alone or in combination for 72 h. Fold change in gene expression values is shown as mean±SD of three experiments and are normalized to GAPDH gene expression.
Without being bound to a particular theory, the effect of administration of NSC-30049 in combination with oxaliplatin (OPT) on the expression of self-renewal marker genes of colon cancer stem cells was analyzed. Self-renewal marker genes are highly expressed in colon cancer stem cells compared to human parental cancer cells. qRT-PCR data of CD133+, Oct4, Sox2 and Nanog gene expression levels of parental cancer cells and colon cancer stem cells was obtained (FIG. 9B). Cells were treated with 1.25 μM of NSC-30049 and 1.25 μM of OPT either alone or in combination for 72 h. The fold change in gene expression values is shown as mean±SD of three experiments and were normalized to GAPDH gene expression. […]

PANC1 = assay: MTT assay, pancreatic cancer cell line; format: cell-based, human; conditions: Homo sapiens, PANC-1; PANC1 (dFdC-resistant); single agent; 72 h; read-out: IC50
DNA ligase I = DNA ligase I (Homo sapiens, UniProt P18858); assay: DNA ligase I activity in vitro; format: biochemical; conditions: DNA ligase I 1 nM
Protocol: Lanes 4-7 contained increasing concentrations of NSC-30049 (0.5, 1, 2.5, and 5 μM, respectively). The arrows indicate the positions of the 63-mer substrate and the products. […] Data are representative of three different experiments.

[2] = tested on: Aldh1a1 and Aldh1a7 expression in GBM-L0 stem cells; assay: qRT-PCR of aldehyde dehydrogenase genes in GBM-L0 stem cells; format: cell-based; conditions: 36 h
Protocol: Cells were pretreated with 2.5 μM of NSC30049 or 10 or 100 μM TMZ alone or in combination with NSC-30049 for 36 h. Then, total RNA was isolated and processed for gRT-PCR. Data presented are the mean±SE of three different measurements. […] Treatment with NSC-30049 or TMZ reduced the expression of aldehyde dehydrogenase gene Aldh1a7 in GBM-LO stem cell line in vitro, but not treatment with NSC-30049 and TMZ. Cells were pretreated with 2.5 μM of NSC30049 or 10 or 100 μM of TMZ alone or in combination with NSC-30049 for 36 h. Then, total RNA was isolated and processed for qRT-PCR. Data presented are the mean±SE of three different measurements.
Without being bound to a particular theory, the effect of administration of NSC-30049 in combination with temozolomide (TMZ) on the expression of self-renewal marker genes of […] was analyzed. Self-renewal marker genes are highly expressed in colon cancer stem cells compared to human parental cancer cells. qRT-PCR data of CD133+, Oct4, Sox2 and Nanog gene expression levels of GBM-L0 stem cells was obtained (FIG. 14A). Cells were pretreated with 2.5 μM of NSC30049 or 10 or 100 μM of TMZ alone or in combination with NSC-30049 for 36 h. Then, total RNA was isolated and processed for qRT-PCR. Data presented are the mean±SE of three different measurements. […]

APE1 = APE1 (Homo sapiens, UniProt P27695); assay: fluorescence anisotropy, APE1 binding to AP-site DNA
Source text: FIGS. 7A and 7B show the effect of NSC-30049 on the APE1 affinity for AP-lesion containing DNA. […] FIG. 7B is a table showing the apparent Kd values of the data. Values are the mean±SD of triplicate estimations.
The small molecule inhibitor (SMI), NSC-30049, was identified as an inhibitor of APE1 endonuclease activity by molecular docking.

BxPC3 = assay: MTT assay, pancreatic cancer cell line; format: cell-based, human; conditions: Homo sapiens, BXPC-3; BxPC3 (dFdC-sensitive); single agent; 72 h; read-out: IC50
MiaPaCa2-Lu tumors = assay: orthotopic MiaPaCa2-Lu tumors in athymic mice, tumor luciferase expression; format: in vivo; conditions: combination treatment of NSC-30049 and CDDP
Source text: FIG. 8A depicts in situ imaging of orthotopic MiaPaCa2-Lu tumors growing in female athymic (nu/nu) mice.

HPAC = assay: MTT assay, pancreatic cancer cell line; format: cell-based, human; conditions: Homo sapiens; HPAC (dFdC-sensitive); single agent; 72 h; read-out: IC50
colon cancer stem cells = assay: cell growth inhibition of colon cancer stem cells; format: cell-based, human; conditions: Homo sapiens, 72 h
Protocol: Cells were treated with 1.25 μM of NSC-30049 and 1.25 μM of OPT either alone or in combination for 72 h. Data are mean±SD of triplicate experiments. […] Cells were treated with 1.25 μM of NSC-30049 and 1.25 μM of OPT either alone or in combination for 72 h. Fold change in gene expression values is shown as mean±SD of three experiments and are normalized to GAPDH gene expression.
The effect of administration of NSC-30049 in combination with oxaliplatin (OPT) was also examined in human parental cancer cells and colon cancer stem cells (FIG. 9A). Cells were treated with 1.25 μM of NSC-30049 and […] of OPT either alone or in combination for 72 h. Cell growth inhibition was assayed. Data presented are mean±SD of triplicate experiments.

Chain of DNA ligase I (P18858 whole entry, species assumed): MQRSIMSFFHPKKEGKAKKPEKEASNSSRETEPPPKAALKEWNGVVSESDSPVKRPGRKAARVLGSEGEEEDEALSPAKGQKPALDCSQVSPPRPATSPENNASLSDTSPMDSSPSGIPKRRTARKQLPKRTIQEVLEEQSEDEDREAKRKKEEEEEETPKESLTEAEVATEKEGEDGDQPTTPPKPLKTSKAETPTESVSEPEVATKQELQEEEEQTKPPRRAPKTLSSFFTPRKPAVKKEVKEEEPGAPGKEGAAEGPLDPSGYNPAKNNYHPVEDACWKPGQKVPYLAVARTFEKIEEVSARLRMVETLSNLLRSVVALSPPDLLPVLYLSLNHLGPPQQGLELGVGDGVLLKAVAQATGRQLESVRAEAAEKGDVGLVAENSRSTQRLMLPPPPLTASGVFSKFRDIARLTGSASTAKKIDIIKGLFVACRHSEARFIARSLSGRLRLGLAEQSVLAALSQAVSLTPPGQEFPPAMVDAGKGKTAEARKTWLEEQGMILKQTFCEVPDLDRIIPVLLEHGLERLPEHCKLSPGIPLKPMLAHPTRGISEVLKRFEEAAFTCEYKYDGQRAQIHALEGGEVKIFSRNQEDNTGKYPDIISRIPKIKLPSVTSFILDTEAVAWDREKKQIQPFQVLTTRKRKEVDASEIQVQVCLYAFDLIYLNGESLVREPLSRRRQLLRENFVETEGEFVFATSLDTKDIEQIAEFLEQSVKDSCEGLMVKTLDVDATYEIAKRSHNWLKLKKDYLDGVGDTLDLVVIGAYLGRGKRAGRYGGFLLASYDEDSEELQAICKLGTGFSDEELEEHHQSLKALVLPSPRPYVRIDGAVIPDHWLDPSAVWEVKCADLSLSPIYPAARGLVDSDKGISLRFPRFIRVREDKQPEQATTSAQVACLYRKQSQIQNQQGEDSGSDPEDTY
Chain of APE1 (P27695 whole entry): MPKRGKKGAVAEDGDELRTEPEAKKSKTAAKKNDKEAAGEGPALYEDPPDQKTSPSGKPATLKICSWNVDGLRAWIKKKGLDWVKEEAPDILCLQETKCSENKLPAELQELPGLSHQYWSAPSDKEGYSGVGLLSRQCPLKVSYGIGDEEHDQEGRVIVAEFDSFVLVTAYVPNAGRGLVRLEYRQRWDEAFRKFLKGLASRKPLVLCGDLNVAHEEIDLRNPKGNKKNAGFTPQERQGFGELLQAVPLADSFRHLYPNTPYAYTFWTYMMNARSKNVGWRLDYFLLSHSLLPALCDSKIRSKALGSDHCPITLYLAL

Which results are given for `ClCC=CC[N+]12CN3CN(CN(C3)C1)C2` [NSC-30049, 1-(4-Chloro-2-butenyl)-1λ˜5˜,3,5,7-tetraazatricyclo[3.3.1.1˜3,7˜]decane]?
expression of CD133, Nanog, Oct4, and Sox2 [1]: significantly inhibited the expression of CD133, Nanog, Oct4, and Sox2; IC50 (PANC1): 5.12 ± 0.22 µM; effect on DNA ligase I activity (DNA ligase I): did not affect DNA ligase I activity; expression of Aldh1a1 ([2]; 2.5 μM NSC-30049 + 10 or 100 μM TMZ): significantly inhibited the expression of Aldh1a1; expression of Aldh1a7 ([2]; agent alone): inhibited; binding of APE1 with AP-site DNA (APE1): blocked the binding of APE1 with AP-site DNA in a dose-dependent manner; IC50 (BxPC3): 3.87 ± 0.24 µM; inhibition of tumor growth (tumor luciferase expression) (MiaPaCa2-Lu tumors): synergistic effect on the inhibition of MiaPaCa2-Lu tumor growth; IC50 (HPAC): 4.44 ± 0.28 µM; inhibition at 1.25 µM (colon cancer stem cells; 1.25 μM NSC-30049 in combination with 1.25 μM oxaliplatin): ~80%; inhibition at 1.25 µM (colon cancer stem cells; alone, 1.25 μM): ~10%
